Assay [1] concerns the target T1, progesterone receptor (PR) (Homo sapiens, UniProt P06401).
T1 construct: of the progesterone receptor (PR, amino acids 680-933); expressed in transfected cells; host or cells: CHO K1
T1 sequence (P06401 680-933): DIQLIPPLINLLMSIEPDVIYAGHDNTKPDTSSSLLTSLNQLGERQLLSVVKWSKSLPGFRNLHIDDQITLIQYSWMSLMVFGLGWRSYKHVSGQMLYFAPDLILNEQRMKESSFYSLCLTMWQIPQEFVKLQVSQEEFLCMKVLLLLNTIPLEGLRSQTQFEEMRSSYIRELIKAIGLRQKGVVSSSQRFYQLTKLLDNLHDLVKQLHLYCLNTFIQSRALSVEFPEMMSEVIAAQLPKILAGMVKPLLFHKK
Description: Cellular in vitro assay, GAL4-PR chimera luciferase reporter in CHO K1 cells (selectivity). Type of assay: cell-based. The following applies: antagonism vs progesterone; CHO K1 GAL4-PR LBD luciferase reporter. An excerpt: (§1) 1. Cellular In Vitro Assay to Determine the Inhibitory MR Activity and MR Selectivity Compared with Other Steroid Hormone Receptors
(§2) Antagonists of the human mineralocorticoid receptor (MR) are identified, and the activity of the compounds described herein is quantified with the aid of a recombinant cell line. The cell is originally derived from a hamster ovary epithelial cell (Chinese Hamster Ovary, CHO K1, ATCC: American Type Culture Collection, VA 20108, USA).
(§3) An established chimera system in which the ligand-binding domains of human steroid hormone receptors are fused to the DNA-binding domain of the yeast transcription factor GAL4 is used in this CHO K1 cell line. The GAL4-steroid hormone receptor chimeras produced in this way are cotransfected and stably expressed with a reporter construct in the CHO cells.
(§4) To generate the GAL4-steroid hormone receptor chimeras, the GAL4 DNA-binding domain (amino acids 1-147) from the vector pFC2-dbd (from Stratagene) is cloned with the PCR-amplified ligand-binding domains of the mineralocorticoid receptor (MR, amino acids 734-985), of the progesterone receptor (PR, amino acids 680-933) and of the androgen receptor (AR, amino acids 667-919) into the vector pIRES2 (from Clontech). The reporter construct, which comprises five copies of the GAL4 binding site upstream of a thymidine kinase promoter, leads to expression of firefly luciferase (Photinus pyralis) after activation and binding of the GAL4-steroid hormone receptor chimeras by the respective specific agonists aldosterone (MR), dexamethasone (GR), progesterone (PR) and dihydrotestosterone (AR).
(§5) The MR, PR and AR cells are plated out in medium (Optimem, 2.5% FCS, 2 mM glutamine, 10 mM HEPES) in 96- (or 384- or 1536-)well microtiter plates on the day before the assay and are kept in a cell incubator (96% humidity, 5% v/v CO2, 37° C.). On the day of the assay, the substances to be tested are taken up in the abovementioned medium and added to the cells. About 10 to 30 minutes after addition of the test substances, the respective specific agonists of the steroid hormone receptors are added. After a further incubation time of 5 to 6 hours, the luciferase activity is measured with the aid of a video camera. The measured relative light units as a function of the substance concentration result in a sigmoidal stimulation curve. The IC50 values are calculated with the aid of the GraphPad PRISM computer program (Version 3.02).

Assay [2] addresses T2, human mineralocorticoid receptor (MR) (Homo sapiens, UniProt P08235).
T2 construct: expressed in transfected cells; host or cells: CHO K1
T2 sequence (P08235 734-984 limits assumed): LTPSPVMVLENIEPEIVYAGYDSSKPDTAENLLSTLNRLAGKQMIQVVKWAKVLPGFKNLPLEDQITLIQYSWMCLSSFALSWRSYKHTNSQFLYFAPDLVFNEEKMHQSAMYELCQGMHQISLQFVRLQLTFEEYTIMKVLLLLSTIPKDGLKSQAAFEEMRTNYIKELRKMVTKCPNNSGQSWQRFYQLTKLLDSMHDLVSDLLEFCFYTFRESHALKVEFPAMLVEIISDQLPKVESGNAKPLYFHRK
The assay can be described thus: Cellular in vitro assay, GAL4-MR chimera luciferase reporter in CHO K1 cells (inhibitory MR activity). Type of assay: cell-based. To be noted: antagonism vs aldosterone; CHO K1 GAL4-MR LBD luciferase reporter.
From the text: as §1, §2, §3, §4, §5

For the next assay, the target named is T3, CYP3A4 (Homo sapiens, UniProt P08684).
T3 construct: using human liver microsomes (pool from various individuals); from tissue; host or cells: human liver microsomes (pool from various individuals)
Description: CYP inhibition assay with human liver microsomes. It is filed as in vitro ADME. From the text:
Inhibitory properties of an active ingredient on the cytochromes P450 (CYP) of the human body may entail extensive clinical effects (drug interactions) because most of the prescribed medicaments are degraded (metabolized) by these enzymes. The ones involved in this are in particular the CYP isoenzymes of the 1A and 2C families, CYP2D6 and, with a proportion of almost 50%, CYP3A4. In order to preclude or minimize these possible drug interactions (Drug-Drug Interactions, DDI), the ability of substances to be able to inhibit CYP1A2, CYP2C8, CYP2C9, CYP2D6 and CYP3A4 in humans is investigated using human liver microsomes (pool from various individuals). This takes place by measuring CYP isoform-specific metabolites formed from standard substrates such as, for example, phenacetin, amodiaquin, diclofenac, dextromethorphan, midazolam and testosterone. The inhibitory effects are investigated at six different concentrations of the test compounds (1.5, 3.1, 6.3, 12.5, 25 and 50 μM as maximum concentration or 0.6, 1.3, 2.5, 5, 10 and 20 μM as maximum concentration), comparing with the extent of the CYP isoform-specific metabolite formation of the standard substrates in the absence of the test compounds, and calculating the corresponding IC50 values. CYP isoform-specific standard inhibitors such as, for example, fluvoxamine, quercetin, sulfaphenazole, fluoxetine and ketoconazole serve as control of the results obtained. In order to obtain indications of the possible mechanism-based inhibitors (MBI) on CYP3A4, the human liver microsomes are incubated in the presence of the inhibitor to be investigated for 30 minutes before the addition of midazolam or testosterone as standard substrates of CYP3A4. A reduction in the IC50 obtained by comparison with the mixture without preincubation serves as an indicator of a mechanism-based inhibition. Mibefradil serves as positive control.
The incubations of the standard substrates with human liver microsomes (23-233 μg/mL) in the presence of the test compound (as potential inhibitor) are carried out in 96-well plates in a workstation (Tecan, Genesis, Crailsheim, Germany) at 37° C. The incubation times are 15-20 minutes. The test compounds are preferably dissolved in acetonitrile (1.0 or 2.5 mM stock solution). The 96-well plates are produced by sequential addition of a stock solution of NADP+, EDTA, glucose 6-phosphate and glucose-6-phosphate dehydrogenase in phosphate buffer (pH 7.4), the test compound, and a solution of standard substrate and human liver microsomes in phosphate buffer (pH 7.4). The total volume is 200 μl. The corresponding control incubations with and without standard inhibitor also take place on the 96-well plate. The incubations are stopped after the respective incubation time by adding 100 μl of acetonitrile in which there is a suitable internal standard. Precipitated proteins are removed by centrifugation (3000 rpm, 10 minutes, 10° C.). The resulting supernatants of the respective plates are combined on one plate and analyzed by LC-MS/MS. The […] values are generated from the resulting measured data and used to assess the inhibitory potential of the test compound.
For orientation: Liver microsomes are a subcellular fraction often used to study metabolism.

In the next assay the target is T4, androgen receptor (AR) (Homo sapiens, UniProt P10275).
T4 construct: of the androgen receptor (AR, amino acids 667-919); expressed in transfected cells; host or cells: CHO K1
T4 sequence (P10275 668-920): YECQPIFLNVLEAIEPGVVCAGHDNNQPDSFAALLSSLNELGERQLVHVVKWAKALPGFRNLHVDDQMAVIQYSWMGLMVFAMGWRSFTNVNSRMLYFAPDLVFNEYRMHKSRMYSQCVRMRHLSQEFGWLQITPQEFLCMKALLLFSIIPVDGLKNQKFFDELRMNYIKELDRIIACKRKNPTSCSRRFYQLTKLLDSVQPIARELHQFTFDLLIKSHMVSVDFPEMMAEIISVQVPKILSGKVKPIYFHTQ
Description: Cellular in vitro assay, GAL4-AR chimera luciferase reporter in CHO K1 cells (selectivity). Type of assay: cell-based. To be noted: antagonism vs dihydrotestosterone; CHO K1 GAL4-AR LBD luciferase reporter.
From the text: as §1, §2, §3, §4, §5

Where [3] appears, read: 30 min preincubation with test compound before substrate, read-out: CYP 3A4 Preincubation, 30 min.
Where [4] appears, read: without preincubation, read-out: CYP 3A4 Coincubation.

The source of these data is US20110201564A1, “SUBSTITUTED 7-SULFANYLMETHYL, 7-SULFINYLMETHYL AND 7-SULFONYLMETHYL INDOLES AND USE THEREOF” (BAYER SCHERING PHARMA AKTIENGESELLSCHAFT, priority 2008, published 2011).

Like-named read-outs stand apart in the source and are kept apart here.

T3 sequence (P08684 whole entry): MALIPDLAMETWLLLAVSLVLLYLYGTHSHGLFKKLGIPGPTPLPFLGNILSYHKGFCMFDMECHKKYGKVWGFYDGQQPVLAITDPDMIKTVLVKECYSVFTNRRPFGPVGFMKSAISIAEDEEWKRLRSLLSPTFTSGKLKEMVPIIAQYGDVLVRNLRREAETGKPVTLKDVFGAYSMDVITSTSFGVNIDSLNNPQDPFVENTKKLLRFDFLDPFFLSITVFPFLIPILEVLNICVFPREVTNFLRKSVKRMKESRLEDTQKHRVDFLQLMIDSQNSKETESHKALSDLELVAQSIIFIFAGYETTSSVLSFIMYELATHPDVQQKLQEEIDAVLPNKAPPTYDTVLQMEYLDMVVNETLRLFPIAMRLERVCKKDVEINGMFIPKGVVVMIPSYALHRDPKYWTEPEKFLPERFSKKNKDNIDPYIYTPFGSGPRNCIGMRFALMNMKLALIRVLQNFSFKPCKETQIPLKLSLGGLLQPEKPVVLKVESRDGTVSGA

Consider `Cc1ccc(C(CCC#N)c2c[nH]c3c(CS(C)(=O)=O)cccc23)cc1` (stereo not shown) [Example 166, 4-(4-Methylphenyl)-4-{7-[(methylsulfonyl)methyl]-1H-indol-3-yl}butanonitrile], for which the IC50 in assay [1] was 10 µM; in assay [2], 0.22 µM; on CYP3A4 (setting [3]), 17.6 µM; on CYP3A4 (setting [4]), more than 20 µM.

For `CS(=O)(=O)Cc1cccc2c(C(c3ccc(Cl)cc3)C3CC3(F)F)c[nH]c12` (single isomer, unassigned) [Example 261-2, 3-[(4-Chlorophenyl)(2,2-difluorocyclopropyl)methyl]-7-[(methylsulfonyl)methyl]-1H-indole], the IC50 in assay [1] is 5.24 µM; in assay [2], 0.028 µM; against androgen receptor (AR) it was 6.06 µM; at CYP3A4 (setting [3]), 15 µM; at CYP3A4 (setting [4]) it was more than 20 µM.

In the case of `CC(CCC#N)(c1ccc(Cl)cc1)c1c[nH]c2c(CS(C)(=O)=O)cccc12` (stereo not shown) [Example 171, 4-(4-Chlorophenyl)-4-{7-[(methylsulfonyl)methyl]-1H-indol-3-yl}-pentanonitrile], the IC50 in assay [1] is 2.23 µM; in assay [2], 0.03 µM; against androgen receptor (AR), 3.2 µM; on CYP3A4 (setting [3]), 7.8 µM; on CYP3A4 (setting [4]), more than 20 µM.

For `CS(=O)(=O)Cc1cccc2c(C(c3ccc(C(F)(F)F)cc3)C3CC3)c[nH]c12` (stereo not shown) [Example 244, 3-{Cyclopropyl[4-(trifluoromethyl)phenyl]methyl}-7-[(methylsulfonyl)methyl]-1H-indole], the IC50 is 0.17 µM in assay [2], more than 20 µM at CYP3A4 (setting [3]) and more than 20 µM on CYP3A4 (setting [4]).

For `CS(=O)(=O)Cc1cccc2c(C(c3ccc(Cl)cc3Cl)C3CC3)c[nH]c12` (stereo not shown) [Example 242, 3-[Cyclopropyl(2,4-dichlorophenyl)methyl]-7-[(methylsulfonyl)methyl]-1H-indole], the IC50 in assay [1] is 3.77 µM; in assay [2], 0.066 µM; on androgen receptor (AR), 1.39 µM; on CYP3A4 (setting [3]) it was 15.8 µM; at CYP3A4 (setting [4]), more than 20 µM.

For `CS(=O)(=O)Cc1cccc2c(C(c3ccc(Cl)cc3)C3CC3)c[nH]c12` (stereo not shown) [Example 249, 3-[(4-Chlorophenyl)(cyclopropyl)methyl]-7-[(methylsulfonyl)methyl]-1H-indole], the IC50 was 9.73 µM in assay [1]; 0.069 µM in assay [2]; 3.45 µM against androgen receptor (AR); 18.3 µM on CYP3A4 (setting [3]); more than 20 µM at CYP3A4 (setting [4]).

For the compound `C[S+]([O-])Cc1cccc2c(C3(C4CC4)CCc4cc(F)ccc43)c[nH]c12` (mixture of isomers) [Example 120, 3-(1-Cyclopropyl-5-fluoro-2,3-dihydro-1H-inden-1-yl)-7-[(methylsulfinyl)methyl]-1H-indole], the IC50 is 5.51 µM in assay [1], 0.15 µM in assay [2], 14.4 µM at CYP3A4 (setting [3]) and more than 20 µM at CYP3A4 (setting [4]).

Regarding `CS(=O)(=O)Cc1cccc2c(C(c3c(F)cc(Cl)cc3F)C3CC3)c[nH]c12` (stereo not shown) [Example 252, 3-[(4-Chloro-2,6-difluorophenyl)(cyclopropyl)methyl]-7-[(methylsulfonyl)methyl]-1H-indole], the IC50 in assay [1] was 10 µM; in assay [2], 0.071 µM; against androgen receptor (AR), 3.03 µM; at CYP3A4 (setting [3]), more than 20 µM; on CYP3A4 (setting [4]) it was more than 20 µM.

Take `CS(=O)(=O)Cc1cccc2c(C(c3ccc(F)cc3F)C3CC3)c[nH]c12` (stereo not shown) [Example 250, 3-[Cyclopropyl(2,4-difluorophenyl)methyl]-7-[(methylsulfonyl)methyl]-1H-indole]: the IC50 was 10 µM in assay [1]; 0.27 µM in assay [2]; 1.6 µM at androgen receptor (AR); 19.4 µM at CYP3A4 (setting [3]); more than 20 µM on CYP3A4 (setting [4]).

`CS(=O)(=O)Cc1cccc2c(C(c3ccc(C(F)(F)F)cc3Cl)C3CC3)c[nH]c12` (stereo not shown) [Example 245, 3-{[2-Chloro-4-(trifluoromethyl)phenyl](cyclopropyl)methyl}-7-[(methylsulfonyl)methyl]-1H-indole]: the IC50 in assay [2] is 0.12 µM; against androgen receptor (AR), 3.45 µM; at CYP3A4 (setting [3]), more than 20 µM; on CYP3A4 (setting [4]) it was more than 20 µM.

On to `CS(=O)(=O)Cc1cccc2c(C(c3ccc(Cl)cc3)C3CC3C#N)c[nH]c12` (stereo not shown) [Example 276, 2-[(4-Chlorophenyl){7-[(methylsulfonyl)methyl]-1H-indol-3-yl}methyl]cyclopropanecarbonitrile], for which the IC50 is 10 µM in assay [1], 0.024 µM in assay [2], 18.2 µM at CYP3A4 (setting [3]) and more than 20 µM at CYP3A4 (setting [4]).
